The results in this text go back to patent publication US9670204B2, “Compounds and pharmaceutical compositions thereof for the treatment of inflammatory disorders” (Galapagos NV, priority 2013, dated 2017).

Test [1] has as its target T1, hENPP2 (UniProtKB/SwissProt Q13822) (Homo sapiens (Human), UniProt Q13822). Briefly: hENPP2 biochemical assay, LPC as substrate. The conditions noted are these: LPC (palmitoyl 16:0) as substrate. A digest of the protocol:
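Human ENPP2 in 50 mM Tris-HCl pH 8.5, 500 mM NaCl, 5 mM KCl, 10 mM CaCl2, 0.1% fatty-acid-free BSA, reacted 30 min at 37 °C with LPC 16:0 (150 µM solution added 1:1). Released choline measured via choline oxidase/peroxidase/TOOS/4-aminoantipyrine quinoneimine dye at 555 nm; IC50 reported.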

Test [2] concerns the target T1, hENPP2. Kind of test: fluorescent hENPP2 biochemical assay, FS-3 as substrate. The conditions noted are these: read-out: FS3-IC50. An outline of the steps: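 hENPP2 in 50 mM Tris-HCl pH 8.0, 250 mM NaCl, 5 mM KCl, 1 mM MgCl2, 1 mM CaCl2, 0.1% fatty-acid-free BSA, preincubated with compound 30 min at room temperature. The 0.75 μM FS-3 solution was added and the mixture incubated 30 min at 30° C. Fluorescence (ex 485/em 520 nm) gives IC50.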

In the case of `CCc1nc2ccc(N3CCN(Cc4ncon4)CC3)cn2c1N(C)c1nc(-c2ccc(F)cc2)cs1` [Compound 41, N-(6-(4-((1,2,4-oxadiazol-3-yl)methyl)piperazin-1-yl)-2-ethylimidazo[1,2-a]pyridin-3-yl)-4-(4-fluorophenyl)-N-methylthiazol-2-amine], the results for the IC50 against hENPP2 [1] and on hENPP2 [2] were more than 1000 nM and 0.01 to 100 nM, respectively.

Take `CCc1nc2ccc(N3CCN(C(=O)OC(C)(C)C)CC3)cn2c1N(C)c1nc(-c2ccc(Cl)cc2)ns1` [Compound 225, tert-butyl 4-(3-((3-(4-chlorophenyl)-1,2,4-thiadiazol-5-yl)(methyl)amino)-2-ethylimidazo[1,2-a]pyridin-6-yl) piperazine-1-carboxylate]: the IC50 (commonly the concentration at which inhibition is half-maximal) is more than 1000 nM against hENPP2 [1] and 0.01 to 100 nM at hENPP2 [2].

Consider `CCc1nc2ccc(C3=NC(CO)CO3)cn2c1N(C)c1nc(-c2ccc(F)cc2)cs1` (stereo not drawn) [Compound 239, (2-(2-ethyl-3-((4-(4-fluorophenyl)thiazol-2-yl)(methyl)amino)imidazo[1,2-a]pyridin-6-yl)-4,5-dihydro-oxazol-4-yl)methanol], for which the figures for the IC50 against hENPP2 [1] and at hENPP2 [2] were more than 1000 nM and 0.01 to 100 nM, respectively.

Take `CCc1nc2ccc(N3CCN(CC(=O)NC)CC3)cn2c1N(C)c1nc(-c2ccc(F)cc2)c(C#N)s1` [Compound 22, 2-(4-(3-((5-cyano-4-(4-fluorophenyl)thiazol-2-yl)(methyl)amino)-2-ethylimidazo[1,2-a]pyridin-6-yl)piperazin-1-yl)-N-methylacetamide]: the IC50 against hENPP2 [1] and at hENPP2 [2] was 0.01 to 100 nM in each case.

With `CCc1nc2ccc(C3CCN(CC(=O)NC4CC4)CC3)cn2c1N(C)c1nc(-c2ccc(F)cc2)cs1` [Compound 194, N-cyclopropyl-2-(4-(2-ethyl-3-((4-(4-fluorophenyl)thiazol-2-yl)(methyl)amino)imidazo[1,2-a]pyridin-6-yl)piperidin-1-yl)acetamide], the IC50 on hENPP2 [1] is more than 1000 nM; on hENPP2 [2], 0.01 to 100 nM.

Turning to `CCc1nc2ccc(C3CCN(CC4COC(=O)O4)CC3)cn2c1N(C)c1nc(-c2ccc(F)cc2)cs1` (stereo not drawn) [Compound 118, 4-((4-(2-ethyl-3-((4-(4-fluorophenyl)thiazol-2-yl)(methyl)amino)imidazo[1,2-a]pyridin-6-yl)piperidin-1-yl)methyl)-1,3-dioxolan-2-one], the IC50 at hENPP2 [1] lay within 100 to 500 nM; at hENPP2 [2], 0.01 to 100 nM.

Turning to `CCc1nc2ccc(C3=CCOCC3)cn2c1N(C)c1nc(-c2ccc(Cl)cc2)cs1` [Compound 221, 4-(4-chlorophenyl)-N-(6-(3,6-dihydro-2H-pyran-4-yl)-2-ethylimidazo[1,2-a]pyridin-3-yl)-N-methylthiazol-2-amine], the half-maximal inhibitory concentration (IC50) at hENPP2 [1] was more than 1000 nM; on hENPP2 [2] it was 0.01 to 100 nM.

On to `CCc1nc2ccc(N3CCN(CC(=O)N(C)C)CC3)cn2c1N(C)c1nc(-c2ccc(F)cc2)cs1` [Compound 35, 2-(4-(2-ethyl-3-((4-(4-fluorophenyl)thiazol-2-yl)(methyl)amino)imidazo[1,2-a]pyridin-6-yl)piperazin-1-yl)-N,N-dimethylacetamide], for which the half-inhibitory concentration (IC50) against hENPP2 [1] was 100 to 500 nM; on hENPP2 [2], 0.01 to 100 nM.

For `CN(c1nc(-c2ccc(Cl)cc2)cs1)c1c(CC(F)(F)F)nc2ccc(C3=CCN(S(C)(=O)=O)CC3)cn12` [Compound 185, 4-(4-chlorophenyl)-N-methyl-N-(6-(1-(methylsulfonyl)-1,2,3,6-tetrahydropyridin-4-yl)-2-(2,2,2-tetrahydropyridin-4-yl)-2-(2,2,2-trifluoroethyl)imidazo [1,2-a]pyridin-3-yl) thiazol-2-amine], the half-maximal inhibitory concentration (IC50) was more than 1000 nM at hENPP2 [1] and 0.01 to 100 nM on hENPP2 [2].

In the case of `CCc1nc2ccc(C3=CCN(C(=O)Nc4cccs4)CC3)cn2c1N(C)c1nc(-c2ccc(F)cc2)cs1` [Compound 208, 4-(2-ethyl-3-((4-(4-fluorophenyl)thiazol-2-yl)(methyl)amino)imidazo[1,2-a]pyridin-6-yl)-N-(thiophen-2-yl)-5,6-dihydropyridine-1(2H)-carboxamide], the IC50 against hENPP2 [1] was more than 1000 nM; at hENPP2 [2], 0.01 to 100 nM.

On to `CCc1nc2ccc(C3CCN(S(C)(=O)=O)CC3)cn2c1N(C)c1nc(-c2ccc(F)cc2)c(C(N)=O)s1` [Compound 137, 2-((2-ethyl-6-(1-(methylsulfonyl)piperidin-4-yl)imidazo[1,2-a]pyridin-3-yl)(methyl)amino)-4-(4-fluorophenyl)thiazole-5-carboxamide], for which the IC50 at hENPP2 [1] was more than 1000 nM; at hENPP2 [2], 0.01 to 100 nM.

As to `CCc1nc2ccc(C3CCN(S(N)(=O)=O)CC3)cn2c1N(C)c1nc(-c2ccc(F)cc2)cs1` [Compound 92, 4-(2-ethyl-3-((4-(4-fluorophenyl)thiazol-2-yl)(methyl)amino)imidazo[1,2-a]pyridin-6-yl)piperidine-1-sulfonamide], the IC50 is more than 1000 nM against hENPP2 [1] and 0.01 to 100 nM on hENPP2 [2].

On to `CCc1nc2ccc(N3CCN(C(=O)C(N)=O)CC3)cn2c1N(C)c1nc(-c2ccc(F)cc2)cs1` [Compound 204, 2-(4-(2-ethyl-3-((4-(4-fluorophenyl)thiazol-2-yl)(methyl)amino)imidazo[1,2-a]pyridin-6-yl)piperazin-1-yl)-2-oxoacetamide], for which the IC50 on hENPP2 [1] is more than 1000 nM; at hENPP2 [2] it was 0.01 to 100 nM.

Regarding `CCc1nc2ccc(C3CCN(CC(=O)N4CC[C@H](C#N)C4)CC3)cn2c1N(C)c1nc(-c2ccc(F)cc2)cs1` [Compound 116, (S)-1-(2-(4-(2-ethyl-3-((4-(4-fluorophenyl)thiazol-2-yl)(methyl)amino)imidazol[1,2-a]pyridin-6-yl)piperidin-1-yl)acetoyl)pyrrolidine-3-carbonitrile], the IC50 was 100 to 500 nM on hENPP2 [1] and 0.01 to 100 nM at hENPP2 [2].

On to `CCc1nc2ccc(C3CCN(S(=O)(=O)CCCN)CC3)cn2c1N(C)c1nc(-c2ccc(F)cc2)cs1` [Compound 90, N-(6-(1-(3-aminopropylsulfonyl)piperidin-4-yl)-2-ethylimidazo[1,2-a]pyridin-3-yl)-4-(4-fluorophenyl)-N-methylthiazol-2-amine], for which the results for the IC50 at hENPP2 [1] and at hENPP2 [2] were 500 to 1000 nM and 0.01 to 100 nM, respectively.

For `CCOC(=O)CN1CCN(c2ccc3nc(CC)c(N(C)c4nc(-c5ccc(F)cc5)cs4)n3c2)CC1` [Compound 36, ethyl 2-(4-(2-ethyl-3-((4-(4-fluorophenyl)thiazol-2-yl)(methyl)amino)imidazo [1,2-a]pyridin-6-yl)piperazin-1-yl)acetate], the IC50 against hENPP2 [1] fell in the range of 100 to 500 nM; on hENPP2 [2], 0.01 to 100 nM.

As to `CCc1nc2ccc(C3CCN(S(C)(=O)=O)CC3)cn2c1N(C)c1nc(-c2ccc(OC)cc2)cs1` [Compound 82, N-(2-ethyl-6-(1-(methylsulfonyl)piperidin-4-yl)imidazo [1,2-a]pyridin-3-yl)-4-(4-methoxyphenyl)-N-methylthiazol-2-amine], the values for the IC50 against hENPP2 [1] and at hENPP2 [2] were more than 1000 nM and 0.01 to 100 nM, respectively.

Turning to `CCc1nc2ccc(C3=CCN(S(C)(=O)=O)CC3)cn2c1N(C)c1nc(-c2ccc(F)cc2)no1` [Compound 189, N-(2-ethyl-6-(1-(methylsulfonyl)-1,2,3,6-tetrahydropyridin-4-yl)imidazo[1,2-a]pyridin-3-yl)-3-(4-fluorophenyl)-N-methyl-1,2,4-oxadiazol-5-amine], the IC50 on hENPP2 [1] is more than 1000 nM; at hENPP2 [2], 0.01 to 100 nM.

With `CCc1nc2ccc(N3CCN(CC(=O)N4CCC(NC(C)=O)C4)CC3)cn2c1N(C)c1nc(-c2ccc(F)cc2)cs1` (stereo not drawn) [Compound 27, N-(1-(2-(4-(2-ethyl-3-((4-(4-fluorophenyl)thiazol-2-yl)(methyl)amino)imidazo[1,2-a]pyridin-6-yl)piperazin-1-yl)acetoyl)pyrrolidin-3-yl)acetamide], the values for the IC50 at hENPP2 [1] and at hENPP2 [2] were 100 to 500 nM and 0.01 to 100 nM, respectively.

Turning to `CCc1nc2ccc(C3CCN(S(C)(=O)=O)CC3)cn2c1N(C)c1nc(-c2ccc(F)cc2F)cs1` [Compound 100, 4-(2,4-difluorophenyl)-N-(2-ethyl-6-(1-(methylsulfonyl)piperidin-4-yl)imidazo [1,2-a]pyridin-3-yl)-N-methylthiazol-2-amine], the IC50 against hENPP2 [1] is more than 1000 nM; at hENPP2 [2], 0.01 to 100 nM.

As to `CCc1nc2ccc(C3CCN(S(C)(=O)=O)CC3)cn2c1N(C)c1nc(-c2ccc(F)cc2)c(C(C)=O)s1` [Compound 105, 1-(2-((2-ethyl-6-(1-(methylsulfonyl)piperidin-4-yl)imidazo[1,2-a]pyridin-3-yl)(methyl)amino)-4-(4-fluorophenyl)thiazol-5-yl)ethanone], the results for the IC50 against hENPP2 [1] and on hENPP2 [2] were 100 to 500 nM and 0.01 to 100 nM, respectively.

For `CCc1nc2ccc(C3CCN(S(C)(=O)=O)CC3)cn2c1N(C)c1nc(-c2ccc(F)cc2Cl)cs1` [Compound 99, 4-(2-chloro-4-fluorophenyl)-N-(2-ethyl-6-(1-(methylsulfonyl)piperidin-4-yl)imidazo [1,2-a]pyridin-3-yl)-N-methylthiazol-2-amine], the IC50 is more than 1000 nM on hENPP2 [1] and 0.01 to 100 nM at hENPP2 [2].

In the case of `CCc1nc2ccc(C3CCN(C(=O)OC(C)(C)C)CC3O)cn2c1N(C)c1nc(-c2ccc(F)cc2)cs1` (stereo not drawn) [Compound 78, tert-butyl 4-(2-ethyl-3-((4-(4-fluorophenyl)thiazol-2-yl)(methyl)amino)imidazo[1,2-a]pyridin-6-yl)-3-hydroxypiperidine-1-carboxylate], the IC50 was more than 1000 nM against hENPP2 [1] and 0.01 to 100 nM at hENPP2 [2].

For `CCc1nc2ccc(C3CCN(C(=O)OC(C)(C)C)CC3)cn2c1N(C)c1nc(-c2ccc(F)cc2)cs1` [Compound 219, tert-butyl 4-(2-ethyl-3-((4-(4-fluorophenyl)thiazol-2-yl)(methyl)amino)imidazo[1,2-a]pyridin-6-yl)piperidine-1-carboxylate], the IC50 against hENPP2 [1] was more than 1000 nM; at hENPP2 [2] it was 0.01 to 100 nM.
